“And” between values parts separate entries of the source, which are not always exact repeats. Equal values may be shown once. Read-outs that look alike come from different tables or passages of the source.
Tests used:
[1] = molecular target: T1, GltPh-G396S/R397C (Pyrococcus horikoshii, UniProt O59010, G396S/R397C); assay: biochemical; assay type: biochemical; details: for Reduction of L-[3H]serine transport by unlabelled competitor (in words): GltPh-R397C/G396S, 10 µM L-[3H]serine, 100-fold excess unlabelled amino acid
T1 construct: hexa-His (N, cleaved yes); made in house; host or cells: Escherichia coli Top10 (pBAD)
Method: (§1) Mutant and wild-type GltPh with an amino-terminal hexa-His tag were expressed in Escherichia coli Top10 cells (Invitrogen), which were grown in Luria broth medium at 37 °C. Ampicillin was added to a final concentration of 100 μg per ml. To induce expression of GltPh, 0.1% L-arabinose was added when cells reached an optical density of 0.6 at 660 nm, and cells were harvested 4 h post induction. Membranes were isolated, and then solubilised with n-dodecyl-β-D-maltopyranoside (C12M, Anatrace). Histidine containing proteins were purified using Ni^2+−nitrilotriacetic acid resin (Qiagen). The histidine tag was subsequently removed from GltPh by digestion with thrombin (10 U per mg protein) and the protein further purified on a Superdex 200 size exclusion column, where the detergent was exchanged to n-decyl-β-D-maltopyranoside (C10M, Anatrace).
(§2) Pure protein was reconstituted into liposomes composed of 75% E. coli Polar Lipid Extract and 25% 1-palmitoyl-2-oleoyl-sn-glycero-3 ^−phopshocholine (Avanti Polar Lipids). Lipids were mixed, dried under nitrogen and resuspended in internal buffer (100 mM KCl, 20 mM HEPES-Tris pH 7.5) using brief sonication (Laboratory Supplies Co.). The lipid suspension was frozen in liquid nitrogen and thawed at room temperature several times. Liposomes were formed by extrusion through 400 nm polycarbonate membranes (Avanti Polar Lipids) and were treated with Triton X-100 at a 0.5:1 (w/w) detergent to lipid ratio prior to the addition of protein at 0.25 μg protein per mg lipid. The protein/lipid mixture was left at room temperature for 30 min before detergent was removed using SM2 Biobeads (BioRad). The mixture was then incubated with gentle agitation, with four consecutive batches of Biobeads (80 mg per ml). Proteoliposomes were concentrated by centrifugation at 150,000 g for 30 min, resuspended at 100 mg lipid per ml and either used immediately or flash-frozen in liquid nitrogen and stored at −80 °C.
(§3) Mutant and wild-type GltPh-mediated transport of radiolabelled substrate was assayed by diluting proteoliposomes (100 mg lipid per ml) 133-fold into uptake buffer (100 mM NaCl, 20 mM HEPES-Tris pH 7.5, 1 μM valinomycin, 100 nM–1 µM L-[^3H]substrate) pre-warmed to 30 °C. At each time point, a 200 µl aliquot was removed and diluted 10-fold into ice-cold quench buffer (100 mM LiCl, 20 mM HEPES-Tris pH 7.5), followed by immediate filtration over nitrocellulose filters (0.22 μm pore size, Millipore). The filters were washed with ice-cold quench buffer and assayed for radioactivity using a Trilux beta counter (PerkinElmer). To establish substrate concentration–response curves, extraliposomal L-[^3H]substrate was varied between 500 nM and 100 µM, maintaining NaCl concentrations at 300 mM. For inhibitor concentration–response curves, for wild-type GltPh 100 nM L-[^3H]aspartate, and for mutant GltPh 1 µM L-[^3H]serine, was co-applied with varying inhibitor concentrations. Background levels of uptake were measured by diluting proteoliposomes into internal buffer (100 mM KCl, 20 mM HEPES-Tris pH 7.5) containing 1 µM of valinomycin and the indicated concentrations of L-[^3H]substrate.

[2] = molecular target: T2, wild-type GltPh (Pyrococcus horikoshii, UniProt O59010); assay: Proteoliposome transport assay, wild-type GltPh; assay type: biochemical
T2 construct: hexa-His (N, cleaved yes); made in house; host or cells: Escherichia coli Top10 (pBAD)
T2 sequence (O59010 1-425): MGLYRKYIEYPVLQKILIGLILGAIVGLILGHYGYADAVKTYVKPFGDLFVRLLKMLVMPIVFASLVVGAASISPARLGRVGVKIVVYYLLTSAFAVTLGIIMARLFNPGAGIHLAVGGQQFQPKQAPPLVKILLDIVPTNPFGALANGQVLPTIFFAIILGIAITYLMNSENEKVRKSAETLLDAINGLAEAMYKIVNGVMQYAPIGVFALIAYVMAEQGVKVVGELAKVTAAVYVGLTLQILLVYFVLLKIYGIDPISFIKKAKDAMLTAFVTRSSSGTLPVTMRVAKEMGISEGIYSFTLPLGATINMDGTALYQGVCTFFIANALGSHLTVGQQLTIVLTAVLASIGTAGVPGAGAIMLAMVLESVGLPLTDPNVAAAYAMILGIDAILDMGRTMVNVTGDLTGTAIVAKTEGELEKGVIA
Method: as §1, §2, §3

[3] = molecular target: T3, GltPh-R397C (Pyrococcus horikoshii, UniProt O59010, R397C); assay: biochemical
T3 construct: hexa-His (N, cleaved yes); made in house; host or cells: Escherichia coli Top10 (pBAD)
Method: as §1, §2, §3
Supplementary Figure 6. GltPh‐R397C, ASCT1 and ASCT2 are functional cysteine transporters. (a) Purified GltPh‐R397C was reconstituted into liposomes and 10µM 35S‐cysteine transport was measured over 10 minutes alone or in the presence of 1 mM dithiothreitol (DTT). Background levels of uptake were measured by diluting proteoliposomes into internal buffer (100 mM KCl, 20 mM HEPES‐Tris pH 7.5) containing 1 µM of valinomycin and the 10µM 35S‐cysteine. […]
(c) Neutral amino acid exchange in GltPh‐R397C. Counterflow experiments in which Na+ and amino acid loaded liposomes were used to detect the transport of a range of unlabelled neutral amino acids by exchanging with external 3H‐serine. Counterflow assays were performed using liposomes containing 200mM NaCl, 20 mM HEPES/Tris pH 7.5, and 1 mM of unlabelled amino acid as indicated. […]

[4] = molecular target: T3, GltPh-R397C; assay: biochemical; assay type: binding
Method: Fluorescence-based binding assays were performed by titrating purified protein (50 μg per ml) in 20 mM HEPES/Tris, pH 7.4, 200 mM choline chloride, 0.4 mM n-dodecyl^−β-D-maltopyranoside, 200 nM styryl fluorescent dye RH421 (Invitrogen, Inc., Grand Island, NY) with NaCl, L-ser, L-cys or benzylcysteine at 25 °C[51]. The RH421 dye was excited at 532 nm, and the fluorescence was collected at 628 nm using a QuantaMaster (Photon International Technology, Inc., Edison, NJ). Fluorescence emissions were measured after at least 10 min equilibration to ensure a stabilised signal. The data were analysed using GraphPad Prism version 6.0 for Mac (GraphPad Software, La Jolla California USA). Fractional fluorescence changes were normalised to maximal fluorescence changes, then plotted as a function of ligand concentration and fitted to the Hill equation. All the experiments were performed at least in triplicate.
Analysis of ligand binding data. The voltage sensitive amphipathic dye RH421 reports on Na+ binding to purified GltPh protein in detergent3. RH421 was used to follow Na+ binding to GltPh‐R397C protein either alone or in reactions coupled to binding of amino acids. […]
Coupled ions and amino acid binding was probed by titrating amino acids to the GltPh‐R397C protein in the presence of 10 – 100 mM Na+ ions. The obtained isotherms were analyzed to estimate an apparent number of Na+ ions coupled to binding of the amino acids.
Raw data were first normalized by the initial fluorescence of RH421 and plotted as fraction of fluorescence change (Supplementary […]
total amount of dye and detergent in the assay buffer.
To take into account significant amino acid‐independent Na+ binding, the sets of binding isotherms obtained at variable Na+ concentrations were fitted globally to a simplified binding equation: […]
KD,a is the combined dissociation constant for coupled Na+ and ligand binding and n is the apparent number of coupled ions. Fraction of the protein bound to either Na+ ions alone or to the ions and the […]
Fraction of the protein already bound to Na+ ions before ligand addition is: […]
Fractional fluorescence change Y is fitted to an equation: […]
where Y0 and ∆Y are, respectively, baseline and the signal difference between fully bound and apo […]
KD,a and n were fitted globally for each ligand. Y0 and ∆Y were adjusted for each isotherm independently. […]
individual isotherm to a standard Hill equation, plotted the apparent dissociation constants as functions of Na+ concentrations and compared the values to those predicted using the parameters from the global fits (Supplementary Figure 8).

[5] = molecular target: T2, wild-type GltPh; details: published values, cited from earlier work
[6] = system: glutamate transporters; parameters: method as in PMID 9463476; details: quoted in discussion; cited from earlier work
[7] = system: ASCTs; parameters: method as in PMID 9463476; details: quoted in discussion; cited from earlier work
[8] = molecular target: T3, GltPh-R397C; assay type: biochemical; details: 100 nM L-[3H]aspartate, 1 µM L-[3H]glutamine, 10 µM 35S-cysteine ± 1 mM DTT, Na+ gradient
[9] = molecular target: the molecule itself; assay: crystal structure; hanging-drop vapour diffusion at 4 °C, protein ~7 mg per ml in n-decyl-maltopyranoside, 15-21% PEG1000, 0.1 M LiSO4, 0.05 M citric acid, 0.05 M Na2HPO4; space group P61; refined with threefold NCS restraints; with L-aspartate (wild type) or 5 mM L-cysteine, L-serine or benzylcysteine (R397C)
[10] = GltPh-G396S/R397C, 1 µM L-[3H]serine, read-out: IC50 for inhibition of L-[3H]serine transport

T1 sequence (O59010 whole entry G396S/R397C): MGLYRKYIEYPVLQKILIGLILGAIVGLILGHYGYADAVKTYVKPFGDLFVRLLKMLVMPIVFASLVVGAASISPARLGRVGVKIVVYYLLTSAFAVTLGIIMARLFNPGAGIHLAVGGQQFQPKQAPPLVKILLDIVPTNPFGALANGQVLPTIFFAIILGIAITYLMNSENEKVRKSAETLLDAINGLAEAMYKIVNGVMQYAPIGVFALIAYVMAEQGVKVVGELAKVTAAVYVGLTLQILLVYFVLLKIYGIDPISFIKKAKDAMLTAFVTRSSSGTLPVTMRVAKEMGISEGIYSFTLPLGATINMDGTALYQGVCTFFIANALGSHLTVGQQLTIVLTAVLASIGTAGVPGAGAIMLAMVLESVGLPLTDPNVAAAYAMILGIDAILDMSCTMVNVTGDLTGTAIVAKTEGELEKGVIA
T3 sequence (O59010 whole entry R397C): as the sequence (O59010 whole entry G396S/R397C) above, with S396G counted along it

Molecule: CC(C)[C@H](N)C(=O)O [L-valine]
- Reduction of L-[3H]serine transport by unlabelled competitor (in words) [1]: to a similar extent

Molecule: C[C@H](N)C(=O)O [L-alanine]
- EC50 [1]: 4 ± 0.2 µM
- Transport of radiolabelled substrate into proteoliposomes (in words) ([2]; 1 µM L-[3H]substrate, Na+ gradient, pH 7.5): not transported
- EC50 [3]: 14 ± 3 µM

Molecule: [Na+] [Na+]
- Hill coefficient nNa of Na+ binding in the absence of amino acids ([4]; GltPh-R397C): 1.2 and 1.2 ± 0.1
- Kd ([4]; GltPh-R397C, Hill fit, read-out: KD,Na of Na+ binding in the absence of amino acids): 38000 µM
- Kd ([5]; ref Reyes et al., 2013, read-out: KD,Na of Na+ binding): 99300 µM
- nNa of Na+ binding ([5]; ref Reyes et al., 2013): 1.6

Molecule: N[C@H](C(=O)O)[C@H](OCc1ccccc1)C(=O)O [TBOA, L-threo-β-oxybenzylaspartic acid]
- IC50 [1, 10]: 500 ± 200 µM
- IC50 ([2]; 100 nM L-[3H]aspartate, read-out: IC50 for inhibition of L-[3H]aspartate transport): 2 ± 1 µM
- Affinity for the glutamate transporters [6]: ~ 50 μM
- IC50 for inhibition of L-[3H]serine transport ([3]; GltPh-R397C, 1 µM L-[3H]serine): poorly inhibited

Molecule: N[C@@H](COCc1ccccc1)C(=O)O [benzylserine]
- IC50 [1, 10]: 120 ± 20 µM
- Affinity for the ASCTs [7]: ~ 1 mM
- IC50 for inhibition of L-[3H]aspartate transport ([2]; 100 nM L-[3H]aspartate): ineffective
- IC50 ([3]; GltPh-R397C, 1 µM L-[3H]serine, read-out: IC50 for inhibition of L-[3H]serine transport): 110 ± 10 µM

Molecule: N[C@@H](CC(=O)O)C(=O)O [L-aspartate]
- Transport of radiolabelled substrate into proteoliposomes (in words) ([1]; GltPh-G396S/R397C, 100 nM L-[3H]aspartate, 1 µM L-[3H]glutamine, Na+ gradient, pH 7.5): does not effectively transport
- Transport of radiolabelled substrate into proteoliposomes (in words) [8]: no longer capable of transporting

Molecule: N[C@@H](CSCc1ccccc1)C(=O)O
- IC50 [1]: 280 ± 60 µM
- Kd [4]: 1000 ± 300 µM
- Apparent number of Na+ ions coupled to binding (n) ([4]; GltPh-R397C, global fit of isotherms at 10–100 mM Na+, 25 °C): 0.8 ± 0.04
- Affinity for the ASCTs [7]: ~ 1 mM
- IC50 for inhibition of L-[3H]aspartate transport ([2]; 100 nM L-[3H]aspartate): ineffective
- IC50 for inhibition of L-[3H]serine transport ([3]; GltPh-R397C, 1 µM L-[3H]serine): reduced affinity compared with benzylserine

Molecule: CSCC[C@H](N)C(=O)O [L-methionine]
- Reduction of L-[3H]serine transport by unlabelled competitor (in words) [1]: to a similar extent

B1: GltPh-R397C (natural protein, Pyrococcus horikoshii)
chain: MGLYRKYIEYPVLQKILIGLILGAIVGLILGHYGYADAVKTYVKPFGDLFVRLLKMLVMPIVFASLVVGAASISPARLGRVGVKIVVYYLLTSAFAVTLGIIMARLFNPGAGIHLAVGGQQFQPKQAPPLVKILLDIVPTNPFGALANGQVLPTIFFAIILGIAITYLMNSENEKVRKSAETLLDAINGLAEAMYKIVNGVMQYAPIGVFALIAYVMAEQGVKVVGELAKVTAAVYVGLTLQILLVYFVLLKIYGIDPISFIKKAKDAMLTAFVTRSSSGTLPVTMRVAKEMGISEGIYSFTLPLGATINMDGTALYQGVCTFFIANALGSHLTVGQQLTIVLTAVLASIGTAGVPGAGAIMLAMVLESVGLPLTDPNVAAAYAMILGIDAILDMGCTMVNVTGDLTGTAIVAKTEG
notes: GltPh of Pyrococcus horikoshii, wild-type background, with the point mutation R397C; Crystallised with L-cysteine, L-serine or benzylcysteine (5 mM each); source: E. coli Top10, purified (Ni-NTA, thrombin digestion, Superdex 200 SEC in detergent); not shown: His6, N-terminal, cleaved
- stoichiometry N [9]: 3

B2: wild-type GltPh, aspartate transporter from Pyrococcus horikoshii (natural protein)
chain: MGLYRKYIEYPVLQKILIGLILGAIVGLILGHYGYADAVKTYVKPFGDLFVRLLKMLVMPIVFASLVVGAASISPARLGRVGVKIVVYYLLTSAFAVTLGIIMARLFNPGAGIHLAVGGQQFQPKQAPPLVKILLDIVPTNPFGALANGQVLPTIFFAIILGIAITYLMNSENEKVRKSAETLLDAINGLAEAMYKIVNGVMQYAPIGVFALIAYVMAEQGVKVVGELAKVTAAVYVGLTLQILLVYFVLLKIYGIDPISFIKKAKDAMLTAFVTRSSSGTLPVTMRVAKEMGISEGIYSFTLPLGATINMDGTALYQGVCTFFIANALGSHLTVGQQLTIVLTAVLASIGTAGVPGAGAIMLAMVLESVGLPLTDPNVAAAYAMILGIDAILDMGRTMVNVTGDLTGTAIVAKTEG
notes: GltPh, Na+-dependent aspartate transporter of the archaeon Pyrococcus horikoshii; wild-type background (not the seven-histidine mutant CAT-7); Crystallised with L-aspartate and Na+ in n-decyl-maltopyranoside; Three protomers in the asymmetric unit (threefold NCS); also called Wt; source: E. coli Top10, purified (Ni-NTA, thrombin digestion, Superdex 200 SEC in detergent); not shown: His6, …
- binding result [9]: binds

— article PMC5750217 (Nature Communications, 2018)
